The record followed here is US20230183226A1, “AKT3 MODULATORS” (Georgiamune LLC, priority 2020, published 2023).

A value given as a limit tells only on which side of the number the result lay.

The test deals with Akt3 (Homo sapiens, UniProt Q9Y243). The test can be described thus: Akt3 inhibition and activation activity (Foxp3 induction assay / Jurkat-FoxP3 luciferase reporter assay). Type of test: cell-based. The settings on record: Table 2. As to the method:
Sorted or enriched (Miltenyi magnetic separation) CD4 conventional T cells (Tconvs−CD4+/CD25) from C57/Bl6 mice were used for the induction of iTregs. A 10 µg/mL plate-bound anti-CD3 antibody (50 ul per well for 96-well plate), […] of soluble anti-CD28 antibody, 100 IU/mL of IL2 and 5 ng/mL of TGF-β in absence or presence of different concentrations of drug (usually titrating from 0.01 uM to 10 uM) were used. As negative control for induction, samples without TGF-β were used.
After 3 days of culture in presence of stimulation, TGF-β and drug, cells were stained with fixable live/dead cell stain (Life Technologies, NY) for gating and exclusion of toxic doses. The mouse Foxp3 buffer kit was used to fix and permeabilize cells according to the manufacturer's instructions (BD Bioscience, San Jose, Calif.). The anti-CD4 antibody and anti-Foxp3 antibody were used to stain the cells. After staining, cells were acquired using flow cytometer.
Cells Culture Process: Prepare a 50 ml conical tube and a T-25 culture flask with 5 ml of pre-warmed Thaw Medium 2 (no G418). Quickly thaw cells in a 37° C. water bath with constant and slow agitation. Immediately transfer the entire contents to the conical tube with Thaw Medium 2 (no G418) and centrifuge the cells at 200×g for 3 minutes.
In general terms: A reporter such as luciferase makes a cellular process visible.

Akt3, sequence (Q9Y243 2-479): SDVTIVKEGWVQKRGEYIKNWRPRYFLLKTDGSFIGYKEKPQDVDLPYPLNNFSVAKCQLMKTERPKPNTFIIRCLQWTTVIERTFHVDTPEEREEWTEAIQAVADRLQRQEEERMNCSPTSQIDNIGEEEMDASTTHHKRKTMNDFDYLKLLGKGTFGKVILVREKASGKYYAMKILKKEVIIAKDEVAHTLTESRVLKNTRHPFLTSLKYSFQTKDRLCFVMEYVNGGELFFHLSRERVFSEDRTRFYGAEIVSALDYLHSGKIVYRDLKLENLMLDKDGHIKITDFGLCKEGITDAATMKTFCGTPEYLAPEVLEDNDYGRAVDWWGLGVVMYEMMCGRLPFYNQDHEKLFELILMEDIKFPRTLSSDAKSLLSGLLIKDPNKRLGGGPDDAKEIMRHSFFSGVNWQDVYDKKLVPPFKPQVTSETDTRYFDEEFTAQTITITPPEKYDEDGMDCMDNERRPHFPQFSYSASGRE

As usually defined, the EC50 is the concentration giving half of the maximal effect. Read a low EC50 as greater potency. In turn, “6-(2,6-dimethylmorpholino)-2-methyl-N-(4-(5-(2-methylpyridin-4-ylamino)-1H-benzo[d]imidazol-2-yl)phenyl)quinolin-4-amine [Compound 128]” gave an EC50 of less than 0.05 µM.
